Results reported in the supplement of paper PMC10307832.

Assays:
Test in all cases: relative viability (nuclei count vs DMSO), 5 days (fraction); higher = more cells survive
NVP-TAE684 + Navitoclax = compound: COc1cc(N2CCC(N3CCN(C)CC3)CC2)ccc1Nc1ncc(Cl)c(Nc2ccccc2S(=O)(=O)C(C)C)n1 [NVP-TAE684] + CC1(C)CCC(c2ccc(Cl)cc2)=C(CN2CCN(c3ccc(C(=O)NS(=O)(=O)c4ccc(N[C@H](CCN5CCOCC5)CSc5ccccc5)c(S(=O)(=O)C(F)(F)F)c4)cc3)CC2)C1 [Navitoclax] (partner 0.5 µM)
Method in brief: (§1)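 Lung cancer cell lines were pin-tool dosed in 1536-well plates on the day after seeding, with either a lone drug or a fixed anchor-drug dose plus five library-drug doses (not always all listed) in √10 steps. Nuclei were counted on 4× images after 5 days. Relative viability is the ratio of treated-well to vehicle-well nuclei counts, with each value a median of duplicate plates.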

Vandetanib + Crizotinib = compound: COc1cc2/c(=N/c3ccc(Br)cc3F)nc[nH]c2cc1OCC1CCN(C)CC1 [Vandetanib] + C[C@@H](Oc1cc(-c2cnn(C3CCNCC3)c2)cnc1N)c1c(Cl)ccc(F)c1Cl [Crizotinib] (partner 1 µM)
Method in brief: as §1

NVP-TAE684 + Crizotinib = compound: COc1cc(N2CCC(N3CCN(C)CC3)CC2)ccc1Nc1ncc(Cl)c(Nc2ccccc2S(=O)(=O)C(C)C)n1 [NVP-TAE684] + C[C@@H](Oc1cc(-c2cnn(C3CCNCC3)c2)cnc1N)c1c(Cl)ccc(F)c1Cl [Crizotinib] (partner 1 µM)
Method in brief: as §1

CUDC-101 + Bortezomib = compound: C#Cc1cccc(Nc2ncnc3cc(OC)c(OCCCCCCC(=O)NO)cc23)c1 [CUDC-101] + CC(C)C[C@H](NC(=O)[C@H](Cc1ccccc1)NC(=O)c1cnccn1)B(O)O [Bortezomib] (partner 0.002 µM)
Method in brief: as §1

Cell Line	relative viability (NVP-TAE684 + Navitoclax; first compound 0.2 µM)	relative viability (NVP-TAE684 + Navitoclax; first compound 0.6325 µM)	relative viability (NVP-TAE684 + Navitoclax; first compound 2 µM)	relative viability (Vandetanib + Crizotinib; first compound 0.02 µM)	relative viability (Vandetanib + Crizotinib; first compound 0.06325 µM)	relative viability (Vandetanib + Crizotinib; first compound 0.2 µM)	relative viability (Vandetanib + Crizotinib; first compound 0.6325 µM)	relative viability (Vandetanib + Crizotinib; first compound 2 µM)	relative viability (NVP-TAE684 + Crizotinib; first compound 0.2 µM)	relative viability (NVP-TAE684 + Crizotinib; first compound 0.6325 µM)	relative viability (NVP-TAE684 + Crizotinib; first compound 2 µM)	relative viability (CUDC-101 + Bortezomib; first compound 0.01 µM)	relative viability (CUDC-101 + Bortezomib; first compound 0.03162 µM)	relative viability (CUDC-101 + Bortezomib; first compound 0.1 µM)	relative viability (CUDC-101 + Bortezomib; first compound 0.3162 µM)	relative viability (CUDC-101 + Bortezomib; first compound 1 µM)
NCI-H1792	0.533	0.579	0.558	0.941	0.973	0.924	0.991	0.894	1.06	0.966	0.954	0.98	0.965	0.918	0.952	0.965
NCI-H1915	0.795	0.806	0.752	0.842	0.889	0.933	0.857	0.892	0.922	0.921	0.858	1.01	1.01	0.982	0.936	0.836
NCI-H1975	1.06	–	0.513	0.887	0.943	0.922	0.994	0.852	0.978	1.1	0.227	0.418	0.361	0.427	0.362	0.165
NCI-H1993	–	0.791	0.696	0.924	0.77	0.861	0.77	0.72	–	0.709	0.548	1.19	1.12	0.782	0.995	0.611
NCI-H2009	1.2	1.15	0.95	1.06	0.964	1.08	1.02	1.03	1.07	0.968	0.788	1.01	1.04	1.05	1.04	0.889
NCI-H2023	0.965	1.04	0.775	0.661	0.556	0.624	0.49	0.499	0.549	0.45	0.144	0.932	0.935	1.08	1.26	0.844
NCI-H2085	1.01	1.06	0.874	0.807	0.841	0.932	0.937	0.875	0.788	0.872	0.55	1.07	1.08	0.97	1.06	0.915
NCI-H2087	1.11	1.17	0.766	0.785	0.949	0.835	0.88	0.904	0.942	1.14	0.642	0.813	0.871	0.614	0.754	0.445
NCI-H2126	0.951	0.84	0.621	0.983	0.964	0.99	0.97	0.959	1.08	1.07	0.726	1.12	1.14	1.1	1.08	1.01
NCI-H2228	0.443	0.421	0.129	0.446	0.473	–	0.484	0.479	0.476	0.42	0.139	1.11	1.2	1.18	0.97	0.279
NCI-H2347	0.716	0.826	0.752	0.665	0.56	0.737	0.789	0.718	0.683	0.619	0.617	0.94	1.05	0.866	0.95	0.805
NCI-H2405	0.897	0.709	0.437	0.876	0.664	0.875	0.88	0.795	0.828	–	0.644	0.969	1.04	0.936	1.02	0.982
NCI-H3122	0.282	0.525	0.176	0.291	0.257	0.266	0.261	0.249	0.243	0.216	0.179	1.06	0.984	1.05	1.01	1.01
PC-3 [JPC-3]	0.862	0.822	0.658	0.96	0.943	0.935	0.811	0.52	0.993	1	0.946	0.885	0.927	0.779	0.642	0.629
PC-14	1.13	1.05	0.894	0.94	0.853	0.897	0.386	0.231	0.994	1.02	0.75	1.07	0.978	0.89	0.596	0.219
RERF-LC-KJ	1.14	1.04	0.67	0.83	0.789	0.871	0.883	0.794	0.948	0.781	0.792	1.2	1.07	1.09	1.14	0.97
SK-LU-1	1.12	0.88	0.206	1.06	0.667	0.862	0.909	0.732	0.972	0.81	0.412	1.55	1.03	1.48	0.829	0.976
SW 1573	0.904	0.959	0.737	0.896	0.704	0.7	0.815	0.849	0.971	0.805	0.673	1.23	1.13	1.13	1.27	0.914
